≈ marks a conversion by molar mass, not a printed value.
Key:
Artemia salina = test: Toxicity against Artemia salina; type: organism-based; conditions: in vivo
Bacillus subtilis = test: Antimicrobial activity against Bacillus subtilis DSM 347; type: functional
Micrococcus luteus = test: Antimicrobial activity against Micrococcus luteus DSM 348; type: functional

In the case of `C=C1CCC[C@H]2[C@](C)(CCC3=CCC(C4=CC(=O)OC4O)OC3)[C@H](C)CC[C@]12C` (stereo partly drawn) [CACOSPONGIONOLIDE B], the LC50 (Artemia salina) is reported as 0.25 ppm, the MIC (Bacillus subtilis) is reported as 0.78 µg/mL (≈ 1.95 µM) and the MIC (Micrococcus luteus) is reported as 0.78 µg/mL (≈ 1.95 µM).

Source: ChEMBL document CHEMBL1150094, “Cacospongionolide B, a new sesterterpene from the sponge Fasciospongia cavernosa” (J Nat Prod, 1995)
